One data set relates to Strep. pneumococci. Conditions: cited from earlier work.
The conditions of data set [1]: in vivo; cited from earlier work.
The nature of data set [2]: Hydrochlorothiazide 50 mg bio-study, IR versus GRD, urinary drug excretion, urine output and side effects, fasting subjects. In kind it is in vivo. The conditions noted are these: both sexes, human, oral, HCTZ 50 mg, read-out: Elimination half-life (t1/2) (converted). The method, then:
Two formulations for hydrochlorothiazide (an immediate release formulation (IR) and a gastric retention device (GRD)) containing sustained release formulations (SR) were administered in the bio-study (bioavailability study). A commercial tablet containing 50 mg of HCTZ was used as an IR control, and spray-coated beads equivalent to 50 mg of HCTZ were formulated for SR in the lab. The process of SR formulation is described above. Bio-study was performed to evaluate the bioavailability as well as pharmacodynamics of HCTZ from a GRD compared to those from an IR.
Monitoring concentrations of hydrochlorothiazide in the urine of healthy adult volunteers allowed comparison of the relative bioavailability of hydrochlorothiazide from the GRD formulation and from a conventional tablet. Participation involved at least two days for each treatment with at least 72-hours washout period between doses. An IR was given once and the GRD was repeated twice to test the reproducibility of the new dosage form, GRD. A 50 mg dose of was chosen for the study because it was in the range of the recommended dose from the PDR (Physician's Desk References) and it produced concentrations high enough to make HPLC analysis efficient. Six subjects participated in the study, 4 healthy males and 2 healthy females. […] The volume of urine collected was measured in order to calculate total amount of drug recovered. […]

Converted amounts (≈) assume the structure as drawn. Where two headings read alike, the source gives them in different places.

The MIC is the lowest concentration found to suppress growth.

For the molecule `CC1(C)S[C@@H]2[C@H](NC(=O)[C@H](N)c3ccc(O)cc3)C(=O)N2[C@H]1C(=O)O` [Amoxicillin], the MIC with Strep. pneumococci is 0.02 µg/mL (≈ 0.0547 µM). In data set [1], the half-life result is “about 1 hour”.

For the molecule `NS(=O)(=O)c1cc2c(cc1Cl)NCNS2(=O)=O` [hydrochlorothiazide], the half-life in data set [2] was ~7 h.

These data come from patent publication US20040219186A1, “Expandable gastric retention device” (priority 2001, published 2004).
